pIC50: −log10 of the molar value. The source made the active and inactive calls. The rule behind the calls is not given here.
Key:
dengue virus type 2 [1] = assay: Antiviral activity against Dengue virus 2 infected in human HepG2 cells assessed as NS1 level at < maximum non-toxic concentration after 72 hrs by sandwich ELISA (reference value: 44.5 +/- 3.2 PbU); format: functional
dengue virus type 2 [2] = assay: Antiviral activity against Dengue virus 2 infected in human HepG2 cells assessed as reduction in NS1 level at 12.5 uM administered 1 hr postinfection measured after 72 hrs by sandwich ELISA relative to control; format: functional, organism-based
[3] = (§1) Inhibition of Dengue virus 2 recombinant 6xHis-tagged NS2B/NS3 serine protease using Boc-Gly-Arg-Arg-AMC as substrate measured for 60 mins by fluorimetric analysis; parameters: species or system dengue virus type 2
dengue virus type 2 [4] = assay: as §1
HepG2 [5] = assay: Cytotoxicity against human HepG2 cells assessed as reduction in cell viability up to 12.5 uM after 72 hrs by MTT assay; format: cell-based; settings: hepg2, 72 h
dengue virus type 2 [6] = assay: Antiviral activity against Dengue virus 2 infected in human HepG2 cells assessed as reduction in NS1 level at 100 uM administered 1 hr postinfection measured after 72 hrs by sandwich ELISA relative to control; format: functional, organism-based
HepG2 [7] = assay: Cytotoxicity against human HepG2 cells assessed as reduction in cell viability up to 100 uM after 72 hrs by MTT assay; format: cell-based; settings: hepg2, 72 h
dengue virus type 2 [8] = assay: Antiviral activity against Dengue virus 2 infected in human HepG2 cells assessed as reduction in NS1 level at 13.5 uM administered 1 hr postinfection measured after 72 hrs by sandwich ELISA relative to control; format: functional; parameters: scale not given: the % may be the effect or the level left
[9] = Cytotoxicity against human HepG2 cells assessed as cell viability after 72 hrs by MTT assay; format: cell-based
[10] = Selectivity index, ratio of CC50 for human HepG2 cells to IC50 for Dengue virus 2 infected in human HepG2 cells; format: functional
dengue virus type 2 [11] = assay: Antiviral activity against Dengue virus 2 infected in human HepG2 cells assessed as reduction in NS1 level after 72 hrs by sandwich ELISA; format: functional, organism-based; settings: HepG2, 72 h
dengue virus type 2 [12] = assay: Antiviral activity against Dengue virus 2 infected in human HepG2 cells assessed as reduction in NS1 level at 85.7 uM administered 1 hr postinfection measured after 72 hrs by sandwich ELISA relative to control; format: functional; parameters: scale not given: the % may be the effect or the level left
dengue virus type 2 [13] = assay: Antiviral activity against Dengue virus 2 infected in human HepG2 cells assessed as reduction in NS1 level at 49.2 uM administered 1 hr postinfection measured after 72 hrs by sandwich ELISA relative to control; format: functional; parameters: scale not given: the % may be the effect or the level left
dengue virus type 2 [14] = assay: Antiviral activity against Dengue virus 2 infected in human HepG2 cells assessed as reduction in NS1 level at 19.5 uM after 72 hrs by sandwich ELISA relative to control; format: functional; parameters: scale not given: the % may be the effect or the level left
dengue virus type 2 [15] = assay: Antiviral activity against Dengue virus 2 infected in human HepG2 cells assessed as reduction in NS1 level at 9.8 uM administered 1 hr postinfection measured after 72 hrs by sandwich ELISA relative to control; format: functional; parameters: scale not given: the % may be the effect or the level left

Structure (SMILES)	pIC50 [3]	inhibition (dengue virus type 2 [4])	CC50 at 72 h [9] [µM]	Ratio CC50/IC50 [10]	pIC50 (dengue virus type 2 [11])	other results
NC(=O)c1ncn([C@@H]2O[C@H](CO)[C@@H](O)[C@H]2O)n1 [RIBAVIRIN]						Activity (dengue virus type 2 [1]): 8.3 PbU
O=c1oc2ccccc2c(O)c1C1c2ccccc2Oc2c1c(=O)oc1ccccc21 (centres undefined)	4.72	Dose-dependent effect				Activity (dengue virus type 2 [2]): inactive; Activity (HepG2 [5]): Non-toxic
Cc1ccc2nc(-c3ccc(NC(=O)c4c(O)c5c(n(Cc6ccco6)c4=O)CCCC5)cc3)sc2c1	3.22	Dose-dependent effect				Activity (dengue virus type 2 [6]): inactive; Activity (HepG2 [7]): Non-toxic
COc1ccc(C(c2c(O)c3ccccc3oc2=O)c2c(O)c3ccccc3oc2=O)cc1CSc1nc2ccccc2s1	5.04	Dose-dependent effect	42.1	3.6	4.93	Activity (dengue virus type 2 [8]): 73.9%
COc1ccc(C(c2c(O)c3ccccc3oc2=O)c2c(O)c3ccccc3oc2=O)cc1COc1ccc(NC(C)=O)cc1	4.70	Dose-dependent effect	162	2.6	4.21	Activity (dengue virus type 2 [12]): 79.9%; Activity (dengue virus type 2 [13]): 37%
CC1(C)CC(=O)C2=C(C1)c1c(ccc3ccccc13)NC2c1ccc(-c2ccc(O)c(C(=O)O)c2)o1 (centres undefined)	4.76	Dose-dependent effect	58.6	3.9	4.83	Activity (dengue virus type 2 [14]): 69.8%; Activity (dengue virus type 2 [15]): 15.5%
